The record followed here is ChEMBL document CHEMBL1137626, “Identifying common metalloprotease inhibitors by protein fold types using Fourier transform mass spectrometry” (Bioorg Med Chem Lett, 2007).

Each structure is given as a SMILES string.

This experiment in a line: Inhibition of thermolysin by enzcheck protease assay.

For orientation: IC50 means the concentration needed to halve the response being measured. A higher IC50 goes with weaker potency in that assay. As a reminder, the Ki is a dissociation constant, usually derived from enzyme kinetics or from competition with a known ligand. As for `CCCCC[C@H](CC(=O)NO)C(=O)N[C@H](C(=O)N1CCC[C@H]1CO)C(C)C` [ACTINONIN], half-maximal inhibition (IC50) was put at 18.3 µM and the affinity, expressed as Ki, was 4.88 µM.
In turn, `CC(C)C[C@H](NP(=O)(O)O[C@@H]1O[C@@H](C)[C@H](O)[C@@H](O)[C@H]1O)C(=O)N[C@@H](Cc1c[nH]c2ccccc12)C(=O)O` [PHOSPHORAMIDON] yielded an IC50 of 13.8 µM and a Ki of 6.98 µM.
